From US11672753B2, “Composition for sebum control and pore minimizing” (AMOREPACIFIC CORPORATION, priority 2017, dated 2023)

Legend:
[1] = system: procollagen-I in human fibroblasts; experiment: Evaluation of procollagen-I production activity (ELISA of culture solution); type: cell-based; details: TGF-β1 0.005 ppm (comparison); two days after treatment
From the text: An enzyme-linked immunosorbent assay (ELISA) method was used to confirm the amount of procollagen-I produced by the plant extracts of the present disclosure (Youngren et al., 1999). Since procollagen-I is a substance secreted out of cells, the culture solution of the fibroblasts treated with the samples was collected and applied to the experiment as a measurement method for confirming the expression change using the cell culture solution.
Specifically, human fibroblasts (Cell biologics, IL, USA) were inoculated into a 24-well culture plate at 2.5×10^4 cells. After inoculation, it was allowed to stand for one day so that the cells adhered to the bottom of the culture plate. At this time, 2% of low serum growth supplement (LSGS; Thermo Fisher, Mass., USA), […] of streptomycin (the above two reagents, GIBCO, Milan, Italy) were added to 106 medium (Thermo Fisher, Mass., USA) and used as a medium. Each plant extract obtained in Reference Examples 1 to 7 in the experimental group was dissolved in DMSO to make a 1% solution, and then diluted in DMEM medium, and treated to a final concentration of 50 ppm. In addition, for comparison, TGF-β1, known to have the ability to produce procollagen-I, was treated at a concentration of 0.005 ppm instead of the plant extracts. Two days after the treatment with the samples, the production of procollagen-I was measured. […]

[2] = system: HaCaT keratinocytes and human sebaceous gland cells; experiment: Evaluation of sebum production inhibitory activity (Oil Red O staining of triglycerides); type: cell-based; details: retinol 0.3 ppm (comparison); one day
From the text: In order to efficiently evaluate the sebum production inhibitory activity of the plant extracts of the present disclosure, sebaceous gland cells and keratinocytes were used together, and an environment in vitro model similar to that of human sebaceous glands of the hair was used. HaCaT (ATCC, Va., USA), keratinocytes (Cellprogen, Calif., USA) cells and human sebaceous gland cells were inoculated into a 24-well culture plate at 3.75×10^4 cells and 6.0×10^4 cells, respectively. After inoculation, it was allowed to stand for one day so that the cells adhered to the bottom of the culture plate. At this time, 10% of fetal bovine serum (JRH Bioscience, Tokyo, Japan), […] of streptomycin (the above two reagents, GIBCO, Milan, Italy) were added to DMEM medium (Invitrogen, Carlsbad, Calif.) and used as a medium. After one day, the cells were treated with 50 μM of linoleic acid, 50 μM of arachidonic acid, or 10 nM of dihydrotestosterone, as a stimulating source for causing seborrheic skin inflammation. […] After one day, the amount of triglycerides produced in the cells was measured using Oil Red O staining. […] Then, the […], and the absorbance was measured at 520 nm using a spectrophotometer for quantification. […]

Compound | Production rate of Procollagen-I (%) [1] [%] | Inhibition rate of sebum production (%) [2] [%]
TGF-β1: known to have the ability to produce procollagen-I; comparison | 52.1 | –
CC1=C(/C=C/C(C)=C/C=C/C(C)=C/CO)C(C)(C)CCC1 [Retinol] | – | 42.1
